Data reported in ChEMBL document CHEMBL1201862, “PubChem BioAssay data set” (2004).
Each block holds one compound with its values, some of them ahead of it. Calls of active or inactive are those of the source.

Tests used:
Cytochrome P450 3A4 = Cytochrome P450 3A4 (Homo sapiens, UniProt P08684);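 note: CYP3A4 tested as one member of a cytochrome P450 panel screen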
Cytochrome P450 2C9 = Cytochrome P450 2C9 (Homo sapiens, UniProt P11712)
INS1 = experiment: INS-1E survival protection against cytokine death – cell-based, luminescence, retest, dose response (AID 449756); assay type: functional; conditions: Rattus norvegicus;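 note: cell death triggered by IL-1 beta plus TNF-alpha plus IFN-gamma mixture; protective hits raise ATP signal compared with cytokine alone wells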
Cytochrome P450 1A2 = target: T1, Cytochrome P450 1A2 (Homo sapiens, UniProt P05177);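 note: PubChem cytochrome P450 panel assay, CYP1A2 panel member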
T1 sequence (P05177 whole entry): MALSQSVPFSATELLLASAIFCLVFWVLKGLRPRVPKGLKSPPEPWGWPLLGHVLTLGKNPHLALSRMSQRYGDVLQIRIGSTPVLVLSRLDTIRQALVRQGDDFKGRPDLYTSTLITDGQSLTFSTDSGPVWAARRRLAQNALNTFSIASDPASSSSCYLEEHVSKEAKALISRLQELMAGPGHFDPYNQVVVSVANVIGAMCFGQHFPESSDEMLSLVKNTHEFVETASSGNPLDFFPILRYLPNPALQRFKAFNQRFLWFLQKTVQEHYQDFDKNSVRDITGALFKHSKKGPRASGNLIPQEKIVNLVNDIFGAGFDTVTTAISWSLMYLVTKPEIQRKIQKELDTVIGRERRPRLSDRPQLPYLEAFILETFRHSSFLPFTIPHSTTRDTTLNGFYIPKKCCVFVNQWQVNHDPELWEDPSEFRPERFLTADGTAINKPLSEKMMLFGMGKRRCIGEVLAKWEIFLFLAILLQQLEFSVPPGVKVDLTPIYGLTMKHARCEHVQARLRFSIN

Cytochrome P450 2D6 = Cytochrome P450 2D6 (Homo sapiens, UniProt P10635);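 note: CYP2D6 member of a cytochrome P450 panel assay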
[1] = target: T2, Heat shock factor protein 1 (Mus musculus, UniProt P38532); experiment: decrease of HSF1-responsive luciferase luminescence – cell-based, NIH3T3, dose retest, confirmation (AID 2382); assay type: functional;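 note: NIH3T3 fibroblasts with HSF1-driven luciferase reporter stressed by proteasome inhibitor MG132; luminescence from HSF1-driven luciferase expression after 8 hours of MG132 stress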
T2 sequence (P38532 whole entry): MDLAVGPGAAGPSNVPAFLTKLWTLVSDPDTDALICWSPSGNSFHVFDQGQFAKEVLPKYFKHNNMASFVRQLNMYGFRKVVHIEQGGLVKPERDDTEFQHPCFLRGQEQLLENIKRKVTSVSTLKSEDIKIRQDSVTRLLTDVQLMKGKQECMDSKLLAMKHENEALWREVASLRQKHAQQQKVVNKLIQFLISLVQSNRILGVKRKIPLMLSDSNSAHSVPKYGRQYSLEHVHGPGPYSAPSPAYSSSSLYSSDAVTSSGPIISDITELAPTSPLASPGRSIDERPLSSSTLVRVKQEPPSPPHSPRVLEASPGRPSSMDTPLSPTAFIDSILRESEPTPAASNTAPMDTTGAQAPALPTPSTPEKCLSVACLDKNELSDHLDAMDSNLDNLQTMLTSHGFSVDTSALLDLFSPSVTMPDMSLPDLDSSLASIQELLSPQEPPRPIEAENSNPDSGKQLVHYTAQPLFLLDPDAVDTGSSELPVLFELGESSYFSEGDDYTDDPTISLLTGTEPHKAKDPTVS

Cytochrome P450 2C19 = Cytochrome P450 2C19 (Homo sapiens, UniProt P33261); experiment: Cytochrome panel assay with activity outcomes. Panel member name: p450-cyp2c19 Compounds with AC50 equal or less than 10 uM are considered active; assay type: functional
Chain of Cytochrome P450 2C19 (P33261 whole entry): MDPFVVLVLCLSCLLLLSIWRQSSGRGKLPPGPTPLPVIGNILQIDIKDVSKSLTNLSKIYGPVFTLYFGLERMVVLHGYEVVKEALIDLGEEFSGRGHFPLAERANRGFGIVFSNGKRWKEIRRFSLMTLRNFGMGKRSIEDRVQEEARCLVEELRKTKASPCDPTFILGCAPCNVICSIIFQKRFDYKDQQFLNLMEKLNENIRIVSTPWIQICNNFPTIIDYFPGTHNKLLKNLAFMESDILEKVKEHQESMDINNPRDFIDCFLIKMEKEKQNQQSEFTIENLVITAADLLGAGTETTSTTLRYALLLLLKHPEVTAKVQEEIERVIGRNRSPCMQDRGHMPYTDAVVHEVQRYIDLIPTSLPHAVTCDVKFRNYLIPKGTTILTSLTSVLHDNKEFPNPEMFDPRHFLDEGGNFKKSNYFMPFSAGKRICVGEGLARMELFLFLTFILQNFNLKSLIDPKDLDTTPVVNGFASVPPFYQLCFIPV

Chain of Cytochrome P450 2C9 (P11712 whole entry): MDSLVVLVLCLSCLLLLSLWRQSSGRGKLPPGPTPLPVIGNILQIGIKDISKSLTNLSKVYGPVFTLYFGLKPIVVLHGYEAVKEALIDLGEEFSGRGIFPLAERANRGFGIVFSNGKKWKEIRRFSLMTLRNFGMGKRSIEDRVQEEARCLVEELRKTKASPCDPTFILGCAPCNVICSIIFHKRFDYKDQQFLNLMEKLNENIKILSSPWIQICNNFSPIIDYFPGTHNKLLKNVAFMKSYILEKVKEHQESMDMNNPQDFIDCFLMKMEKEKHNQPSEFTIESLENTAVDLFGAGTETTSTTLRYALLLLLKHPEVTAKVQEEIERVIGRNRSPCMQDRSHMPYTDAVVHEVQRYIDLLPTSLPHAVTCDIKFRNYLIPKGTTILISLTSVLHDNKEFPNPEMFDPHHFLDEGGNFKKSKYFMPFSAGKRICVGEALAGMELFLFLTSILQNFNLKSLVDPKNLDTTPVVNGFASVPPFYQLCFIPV
Chain of Cytochrome P450 2D6 (P10635 whole entry): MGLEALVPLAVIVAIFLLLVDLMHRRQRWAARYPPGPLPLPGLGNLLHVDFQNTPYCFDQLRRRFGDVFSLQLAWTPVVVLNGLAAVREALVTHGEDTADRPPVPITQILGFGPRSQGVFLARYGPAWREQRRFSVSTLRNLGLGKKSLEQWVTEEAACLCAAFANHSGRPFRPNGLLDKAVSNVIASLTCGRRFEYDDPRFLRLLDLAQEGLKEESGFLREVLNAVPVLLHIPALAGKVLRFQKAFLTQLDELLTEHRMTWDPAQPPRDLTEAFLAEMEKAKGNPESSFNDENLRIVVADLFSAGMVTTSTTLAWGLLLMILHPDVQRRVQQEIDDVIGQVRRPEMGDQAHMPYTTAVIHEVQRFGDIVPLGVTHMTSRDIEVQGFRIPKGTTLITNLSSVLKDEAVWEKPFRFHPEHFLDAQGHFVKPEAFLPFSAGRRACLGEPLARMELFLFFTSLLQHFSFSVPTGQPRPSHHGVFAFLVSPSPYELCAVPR
Chain of Cytochrome P450 3A4 (P08684 whole entry): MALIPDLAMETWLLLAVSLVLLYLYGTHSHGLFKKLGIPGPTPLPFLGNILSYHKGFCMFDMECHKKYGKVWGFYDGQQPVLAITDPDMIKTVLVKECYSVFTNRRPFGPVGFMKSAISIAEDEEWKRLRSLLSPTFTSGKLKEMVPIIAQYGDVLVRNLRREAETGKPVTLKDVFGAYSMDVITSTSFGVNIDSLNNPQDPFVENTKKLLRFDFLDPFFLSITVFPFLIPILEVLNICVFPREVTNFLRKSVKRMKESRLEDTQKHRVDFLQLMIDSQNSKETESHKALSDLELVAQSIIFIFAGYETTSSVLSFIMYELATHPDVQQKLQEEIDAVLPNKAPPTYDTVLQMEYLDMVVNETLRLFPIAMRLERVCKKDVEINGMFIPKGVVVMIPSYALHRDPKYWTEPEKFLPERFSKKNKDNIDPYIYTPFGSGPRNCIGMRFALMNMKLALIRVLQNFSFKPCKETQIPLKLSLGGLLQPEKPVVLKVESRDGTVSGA

Structure (SMILES): CC1(C)CC(=O)C(/C=N/CCN2CCN(C(=S)Nc3ccc(F)cc3)CC2)=C(O)C1
AC50 (Cytochrome P450 3A4): 25.1 µM (inconclusive)
AC50 (Cytochrome P450 2C9): 25.1 µM (inconclusive)

Structure (SMILES): Fc1ccc(Oc2nc(-c3ccccn3)nc3ccccc23)cc1
AC50 (INS1): 4.84 µM (active)

Structure (SMILES): O=C(O)/C=C\C(=O)Nc1ccc2c(c1)C(=O)c1cc(F)ccc1-2
AC50 (Cytochrome P450 1A2): 0.794 µM (inconclusive)

Structure (SMILES): O=C(O)c1ccc(NCc2nc3cc4ccccc4cc3[nH]2)cc1
AC50 (Cytochrome P450 1A2): 5.01 µM (inconclusive)

Structure (SMILES): CCCCCC(=O)O[C@H](CC(=O)O)C[N+](C)(C)C
AC50 (Cytochrome P450 1A2): 31.6 µM (inconclusive)

Structure (SMILES): Cc1ccc(NC(=O)CSCc2cc(=O)n3cc(C)sc3n2)c(C)c1
EC50 [1]: > 195 µM (not active)

Structure (SMILES): Cn1cccc1C(=O)N1CCC[C@@]2(CCN(Cc3ccccc3)C2)C1
AC50 (Cytochrome P450 1A2): 10 µM (inconclusive)
AC50 (Cytochrome P450 3A4): 5.01 µM (inconclusive)

Structure (SMILES): Cc1cccc(C(=O)NNC(=O)C2CCCO2)c1 (configuration not stated)
AC50 (Cytochrome P450 2C19; read-out: AC50): 5.01 µM (inconclusive)

Structure (SMILES): CC[C@@H]1C/C=C\Cc2ccccc2[C@H](C(=O)C[C@@H](O)CC(C)=O)OC1=O
AC50 (INS1): > 260 µM (inactive)

Structure (SMILES): O=C1O[C@@H]([C@H](O)[C@H](O)[C@H](O)CO)[C@@H](O)[C@@H]1O
AC50 (Cytochrome P450 2C19): inconclusive

Structure (SMILES): COC(=O)[C@H](Cc1ccccc1)N(Cc1ccccc1)S(=O)(=O)N(Cc1ccccc1)[C@@H](Cc1ccccc1)C(=O)OC
AC50 (INS1): 4.51 µM (active)

Structure (SMILES): NC(=O)C1CCN(C(=O)OCc2ccccc2)CC1
AC50 (Cytochrome P450 2C19; read-out: AC50): 11.2 µM (inconclusive)

Structure (SMILES): COc1ccc(NC(=O)N2CCC3(CC2)CCN(C(=O)c2csnn2)CC3)cc1
AC50 (Cytochrome P450 1A2): 6.31 µM (inconclusive)
AC50 (Cytochrome P450 3A4): 12.6 µM (inconclusive)

Structure (SMILES): O=C(c1cccc(F)c1)N1CCC[C@@]2(CCN(Cc3nccs3)C2)C1
AC50 (Cytochrome P450 2D6): 20 µM (inconclusive)
AC50 (Cytochrome P450 1A2): 12.6 µM (inconclusive)

Structure (SMILES): CCNC(=O)C1CC(=O)OC12CCCCC2 (configuration not stated)
AC50 (Cytochrome P450 2C9): 25.1 µM (inconclusive)

Structure (SMILES): Cc1ccc(NC(=O)C2CCCN2S(=O)(=O)c2ccc3c(c2)n(C)c(=O)c(=O)n3C)cc1C (configuration not stated)
EC50 [1]: > 195 µM (not active)

Structure (SMILES): CCOc1ccc(NC(=O)c2cccnc2C(=O)O)cc1
EC50 [1]: > 195 µM (not active)

Structure (SMILES): COCCCN(Cc1ccco1)C(=O)CSc1nc2ccc[nH]c-2n1
EC50 [1]: > 195 µM (not active)

Structure (SMILES): C/C(=C/C(=O)NCc1ccccc1)C(=O)O
AC50 (Cytochrome P450 2C19): inconclusive
AC50 (Cytochrome P450 2C9): 0.0398 µM (inconclusive)

Structure (SMILES): Cc1ccc(C(=O)NCCNC(=O)CN2CCOCC2)cc1
AC50 (Cytochrome P450 2C19; read-out: AC50): 0.708 µM (inconclusive)
AC50 (Cytochrome P450 3A4): 28.2 µM (inconclusive)

Structure (SMILES): CCC(=O)N(C)/C=C1\Sc2ccccc2C1=O
AC50 (Cytochrome P450 3A4): 14.1 µM (inconclusive)
AC50 (Cytochrome P450 2C9): 12.6 µM (inconclusive)

Structure (SMILES): Cc1ccc(C(=O)COC(=O)c2ccccc2N2C(=O)C3C4CCC(C4)C3C2=O)cc1C (configuration not stated)
AC50 (Cytochrome P450 2C9): 2 µM (inconclusive)

Structure (SMILES): COc1ccc(COC(=O)N/N=C(\C)CC(=O)Nc2c(C)cc(C)cc2C)cc1
AC50 (Cytochrome P450 2C19; read-out: AC50): 25.1 µM (inconclusive)
AC50 (Cytochrome P450 1A2): 22.4 µM (inconclusive)

Structure (SMILES): Cc1cc(=O)oc(C)c1C(=O)NCCCN1CCN(c2ccc(F)cc2)CC1
AC50 (Cytochrome P450 2D6): 15.8 µM (inconclusive)
AC50 (Cytochrome P450 2C9): 15.8 µM (inconclusive)

Structure (SMILES): O=C(COc1cccnc1[N+](=O)[O-])Nc1cc(S(=O)(=O)N2CCCCC2)ccc1Cl
EC50 [1]: > 195 µM (not active)

Structure (SMILES): CC(C)C(NC(=O)C1CCCCC1)C(=O)NCc1ccccn1 (configuration not stated)
AC50 (Cytochrome P450 3A4): 15.8 µM (inconclusive)

Structure (SMILES): COc1ccccc1CN1CC2(CCN(C(=O)c3cnccn3)CC2)C1
AC50 (Cytochrome P450 3A4): 20 µM (inconclusive)

Structure (SMILES): O=C(c1ccccc1)N1CCSC1=S
AC50 (Cytochrome P450 2C19; read-out: AC50): 25.1 µM (inconclusive)

Structure (SMILES): CCCOc1ccc(N2CC(C(=O)NC(C)C)CC2=O)cc1 (configuration not stated)
EC50 [1]: > 195 µM (not active)

Structure (SMILES): c1ccc2c(CNC3CCCCC3)c[nH]c2c1
AC50 (INS1): 8.45 µM (active)

Structure (SMILES): CCOC(=O)c1cc2c(=O)n3cccc(C)c3nc2n(CCOC)/c1=N\C(C)=O
EC50 [1]: > 195 µM (not active)

Structure (SMILES): O=C(O)c1cc(-c2ccc3cc4c(cc3c2)OCO4)nc2ccccc12
AC50 (Cytochrome P450 1A2): 3.16 µM (inconclusive)

The next lines start with the values.

AC50 (Cytochrome P450 2D6): 25.1 µM (inconclusive)
AC50 (Cytochrome P450 3A4): 12.6 µM (inconclusive)
Structure (SMILES): Cc1nc2ccccn2c1C(=O)CSc1ccccc1Cl

AC50 (Cytochrome P450 2D6): 7.94 µM (inconclusive)
AC50 (Cytochrome P450 3A4): 39.8 µM (inconclusive)
AC50 (Cytochrome P450 2C9): 35.5 µM (inconclusive)
Structure (SMILES): COc1ccc(/C=N\NC(=O)C2C(=O)NCC2c2ccccc2)cc1O (configuration not stated)

EC50 [1]: > 195 µM (not active)
Structure (SMILES): COc1ccc(OC)c(NC(S)=NCc2cccnc2)c1

EC50 [1]: > 195 µM (not active)
Structure (SMILES): O=C(CSc1nnc(CCc2ccccc2)n1-c1ccc(Cl)cc1)c1ccccc1

AC50 (Cytochrome P450 1A2): 28.2 µM (inconclusive)
Structure (SMILES): Cc1ccc(-n2c(S)nnc2-c2cc(C)n(C)n2)cc1

AC50 (Cytochrome P450 2D6): 17.8 µM (inconclusive)
AC50 (Cytochrome P450 2C9): 4.47 µM (inconclusive)
Structure (SMILES): Cc1ccnc(NC(=O)c2cccc(NC(=O)COc3ccccc3)c2)c1

AC50 (Cytochrome P450 1A2): 0.282 µM (inconclusive)
Structure (SMILES): COC(=O)c1sccc1-c1ccc(C(=O)Nc2cccnc2)o1

AC50 (Cytochrome P450 2D6): 20 µM (inconclusive)
AC50 (Cytochrome P450 3A4): 15.8 µM (inconclusive)
Structure (SMILES): CN1CCN(c2ncc3ncc(=O)n(CCc4ccccc4)c3n2)CC1

AC50 (Cytochrome P450 1A2): 22.4 µM (inconclusive)
Structure (SMILES): Cc1cc(C)c(NC(=O)C(C)Sc2nnc(-c3ccco3)n2-c2ccccc2)c(C)c1 (configuration not stated)

EC50 [1]: > 195 µM (not active)
Structure (SMILES): COc1ccc(C2=NCCn3nc4cc([N+](=O)[O-])ccc4c32)cc1

AC50 (Cytochrome P450 2C19; read-out: AC50): 39.8 µM (inconclusive)
Structure (SMILES): COC(=O)[C@@]1(Cc2ccc(OC)cc2)[C@H]2c3cc(C(=O)N(C)C)n(CCc4ccccn4)c3C[C@H]2CN1C(=O)c1ccccc1

AC50 (Cytochrome P450 2C19; read-out: AC50): 25.1 µM (inconclusive)
AC50 (Cytochrome P450 2C9): 31.6 µM (inconclusive)
Structure (SMILES): COc1cccc(Nc2ncc3nc(C)c(=O)n(-c4ccccc4)c3n2)c1

EC50 [1]: 46 µM (active)
Structure (SMILES): COc1ccc(S(=O)(=O)Nc2ccccc2C(=O)N2CCOCC2)cc1Cl

AC50 (Cytochrome P450 1A2): 15.8 µM (inconclusive)
AC50 (Cytochrome P450 2C9): 39.8 µM (inconclusive)
Structure (SMILES): COCCn1c(=O)c(-c2cc(F)cc(F)c2)nc2cnc(N3CCN(C)CC3)nc21

AC50 (Cytochrome P450 2C19; read-out: AC50): 28.2 µM (inconclusive)
AC50 (Cytochrome P450 1A2): 2.51 µM (inconclusive)
Structure (SMILES): Cc1cc(C)c(NC(=O)CSc2nnc(Cc3cccn3C)n2-c2ccc(F)cc2)c(C)c1

AC50 (Cytochrome P450 2C9): 15.8 µM (inconclusive)
Structure (SMILES): O=C(Oc1ccccc1[N+](=O)[O-])c1cccnc1

AC50 (Cytochrome P450 1A2): 12.6 µM (inconclusive)
AC50 (Cytochrome P450 3A4): 14.1 µM (inconclusive)
AC50 (Cytochrome P450 2C9): 15.8 µM (inconclusive)
Structure (SMILES): Cc1ccccc1OCC(=O)NC(=S)Nc1ccc(N2CCOCC2)c(Cl)c1

AC50 (Cytochrome P450 2C19; read-out: AC50): 22.4 µM (inconclusive)
Structure (SMILES): c1ccc(-c2n[nH]c(-c3ccccc3)c2-c2nc3ccccc3[nH]2)cc1

AC50 (Cytochrome P450 2C9): 7.08 µM (inconclusive)
Structure (SMILES): COc1ccc(NC(=O)Cn2cccc2)c(OC)c1

AC50 (Cytochrome P450 3A4): 25.1 µM (inconclusive)
AC50 (Cytochrome P450 2C9): 39.8 µM (inconclusive)
Structure (SMILES): Cn1c(=O)c(-c2cccs2)nc2cnc(N3CCNCC3)nc21

AC50 (Cytochrome P450 2D6): 2.24 µM (inconclusive)
AC50 (Cytochrome P450 3A4): 3.16 µM (inconclusive)
Structure (SMILES): COc1ccccc1CNC(=O)Cn1nnc(-c2ccncc2)n1

AC50 (Cytochrome P450 2D6): 39.8 µM (inconclusive)
AC50 (Cytochrome P450 3A4): 10 µM (inconclusive)
Structure (SMILES): Cc1cnc(CNc2nc(-c3ccccc3C)nc3ccccc23)cn1

EC50 [1]: > 195 µM (not active)
Structure (SMILES): COC(=O)CN1C(=O)Nc2ccc(C)cc2C1c1ccccc1 (configuration not stated)
